Laboratory results: patent US20250084062A1, “SUBSTITUTED QUINOLINE DERIVATIVE” (ASTELLAS PHARMA INC., priority 2021, published 2025)
Where a name gives a salt, the structure may show the parent alone.

Experiments:
[1] = tested on: acetylcholine receptor clustering; settings: reported in NPL 15; cited from earlier work
[2] = tested on: acetylcholine receptor clustering in C2Cl2 cells; assay: Induction of acetylcholine receptor clustering in mouse myoblasts C2Cl2 cells (Test Example 1); assay type: cell-based; settings: for Emax / EC50: Mus musculus; for Emax: Myoblast, maximum response, area of acetylcholine receptor cluster region vs 10 ng/ml Agrin (100%), 0.1 ng/ml Agrin = 0%, read-out: Max; for EC50: Myotube, C2Cl2 myotubes, with 0.1 ng/ml Agrin, concentration giving 50% of cluster area of 10 ng/ml Agrin (100%), read-out: EC50
Protocol: Test Example 1: Evaluation of the Induction of Acetylcholine Receptor Clustering in Mouse Myoblasts C2Cl2 Cells
Induction of acetylcholine receptor clustering by the test compound was evaluated by using fluorescently-labeled Bungarotoxin to image and quantify the acetylcholine receptor cluster region induced by the differentiation of myoblasts into myotubes, and measure the change in area. The following test method was optimized with reference to various reports including FEBS let., 586, 3111-3116 (2012). When a concentration response curve is obtained by plotting the logarithmic concentration of the test compound on the horizontal axis and the ratio of the area of acetylcholine receptor cluster region on the vertical axis, the inducing action of the test compound can be determined.
A concentration response curve as an index indicating acetylcholine receptor clustering inducing action of the test compound in mouse C2Cl2 cells was prepared. C2Cl2 cells (ATCC Number: CRL-1772) were seeded at about 5000 cells/well on a 384-well plate (354667; Corning) coated with type I collagen and allowed to incubate at 37 degrees Celsius overnight in DMEM+20% FBS+1% penicillin/streptomycin medium. The following day, the medium was removed and replaced with a differentiation medium containing DMEM+2% FBS+1% penicillin/streptomycin, and allowed to incubate at 37 degrees Celsius for 4 days. The test compound was dissolved in DMSO and added to a differentiation medium containing 0.1 ng/ml Agrin (550-AG-100; R&D systems) such that the final concentration was […] (3-fold serial dilution) or 0.00017 to 3.3 μM (3-fold serial dilution). The final concentration of DMSO was 0.3%. After the 4 days of incubation, the differentiation medium was replaced with a differentiation medium containing the test compound and 0.1 ng/ml Agrin or a differentiation medium containing 0.1 ng/ml Agrin or 10 ng/ml Agrin alone, and allowed to incubate at 37 degrees Celsius overnight. The next day, 10 μl of DMEM containing Bungarotoxin-Alexa488 (B13422; Life technologies) was added to the differentiation medium containing test compound and Agrin and Agrin alone so that the final concentration of Bungarotoxin-Alexa488 was 1 μg/ml, and was allowed to incubate at 37 degrees Celsius for 1 hour to label the acetylcholine receptor. After removing all the medium, 4% PFA was added to each well and allowed to incubate at room temperature for 10 minutes, then washed with PBS, and allowed to incubate at room temperature for 30 minutes in PBS containing 5% goat serum and 0.3% Triton X-100. After removing the PBS solution, PBS-Tween20 (28352; Thermo fisher scientific) containing Anti-Myosin Heavy Chain eFluor (registered trademark) 660 (50-6503-82; eBioscience) and DAPI (340-07971; Dojindo) was added to each well and allowed to incubate at room temperature for 1 hour to label the myotubes and nuclei. After washing three times with PBS-Tween20, the fluorescence was imaged using IN Cell Analyzer 6000 (GE Healthcare). […] The response of control group (1) was regarded as 0% and the response of the control group (2) was regarded as 100%. For quantification, the signal of only the acetylcholine receptor present in the myotube was used to eliminate non-specific fluorescence.
EC50 and Max value were used as indicators of activity in order to quantitatively evaluate the inducing action of the test compound on acetylcholine receptor clustering. EC50 value is a test compound concentration which indicates 50% in terms of the area of acetylcholine receptor cluster region compared to that of 10 ng/ml Agrin (regarded as 100%) in the concentration response curve. EC50 was calculated by nonlinear regression analysis from the concentration response curve using the area of the cluster region of the test compound as an index. Max value is the maximum response value. […]

[3] = tested on: MuSK-type myasthenia gravis animal model; assay: Suppressing action on muscle weakness (grip strength) in MuSK type myasthenia gravis animal model (Test Example 3); assay type: in vivo, mouse; settings: grip strength test on 4th day, female DBA/2 mice, FIG. 2
Protocol: Test Example 3: Suppressing Action on Muscle Weakness in MuSK Type Myasthenia Gravis Animal Model
(§1) In a MuSK-type myasthenia gravis animal model, in which the production of autoantibodies against endogenous MuSK was induced by immunizing with human recombinant MuSK protein, decreased grip strength was evaluated as a pathological index.
(§2) A grip strength measuring device (GPM-100B; Melquest) was used to measure the grip strength of the extremities.
(§3) Repeated daily oral administration of the test compound in the MuSK-type myasthenia gravis animal model was performed as follows.
Seven point five micrograms of human MuSK recombinant protein (9810-MK; R&D systems) prepared with Freund's Complete Adjuvant (263810; Becton, Dickinson and Company) was intradermally administered to the tail of 8-week-old female DBA/2 mice (Charles River Laboratories Japan). Two weeks later, 7.5 micrograms of human MuSK recombinant protein prepared with Freund's Incomplete Adjuvant (263910; Becton, Dickinson and Company) was intradermally administered to the tail to induce myasthenia gravis mice. A week later, antibody titers against human MuSK in serum and grip strengths by the grip strength test were measured, and the mice were divided into groups of 6 mice each and subjected to administration of the test compound. The test compound was orally administered to the mice in the treatment group (3 and 10 mg/kg, suspended in 0.5% methylcellulose twice daily), and vehicle (0.5% methylcellulose) was used for the mice in the control group in place of the test compound. As a normal group, mice of the same age, same sex, and same strain were used that were not immunized with human recombinant MuSK protein. A grip strength test was performed after the administration in the morning of the 4th day.
The significance test between the normal group and the control group was performed by the Student-t test (*p<0.05). In addition, Dunnett's multiple comparison test was used between the control group and the test compound group (#p<0.05). A p-value less than 5% was regarded as significant in all the tests.

[4] = tested on: acetylcholine receptor clustering; settings: NPL 16; cited from earlier work
[5] = tested on: MuSK-type myasthenia gravis animal model; assay: Suppressing action on muscle weakness (grip strength) in MuSK type myasthenia gravis animal model (Test Example 2); assay type: in vivo, mouse; settings: grip strength test on 5th day, female DBA/2 mice, FIG. 1
Protocol: Test Example 2: Suppressing Action on Muscle Weakness in MuSK Type Myasthenia Gravis Animal Model
as §1, §2, §3
Seven point five micrograms of human MuSK recombinant protein (9810-MK; R&D systems) prepared with Freund's Complete Adjuvant (263810; Becton, Dickinson and Company) was intradermally administered to the tail of 8-week-old female DBA/2 mice (Charles River Laboratories Japan). Two weeks later, 7.5 micrograms of human MuSK recombinant protein prepared with Freund's Incomplete Adjuvant (263910; Becton, Dickinson and Company) was intradermally administered to the tail to induce myasthenia gravis mice. A week later, antibody titers against human MuSK in serum and grip strengths by the grip strength test were measured, and the mice were divided into groups of 6 mice each based on the antibody titer value and subjected to administration of the test compound. […]

## CC(C)(C)NCC(O)c1ccc(O)c(CO)c1 (centres unmarked) [salbutamol]
[1]
  inducing action on acetylcholine receptor clustering: has an inducing action on acetylcholine receptor clustering

## Cc1cc(-c2c(F)cc(S(=O)(=O)N3CCC(F)CC3)cc2F)nc2cc(C(=O)O)ccc12 [Example 19, 2-[2,6-difluoro-4-(4-fluoropiperidine-1-sulfonyl)phenyl]-4-methylquinoline-7-carboxylic acid]
[2]
  Emax: 108%
  EC50: 16 nM
[3]; 10 mg/kg oral twice daily
  suppressing action on grip strength decrease: suppressing action on grip strength decrease

## C=C1CC[C@H](O)C/C1=C/C=C1\CCC[C@]2(C)[C@@H]([C@H](C)CCCC(C)C)CC[C@@H]12
[4]
  inducing action on acetylcholine receptor clustering in combination with Agrin: promotes an inducing action on acetylcholine receptor clustering

## Cc1cc(-c2c(F)cc(S(=O)(=O)N3CC[C@H](F)C3)cc2F)nc2cc(C(=O)[O-])ccc12.[Na+] [Example 2, sodium 2-{2,6-difluoro-4-[(3S)-3-fluoropyrrolidine-1-sulfonyl]phenyl}-4-methylquinoline-7-carboxylate]
[5]; 10 mg/kg oral twice daily
  suppressing action on grip strength decrease: suppressing action on grip strength decrease
[5]; 30 mg/kg oral twice daily
  suppressing action on grip strength decrease: suppressing action on grip strength decrease

## Cc1cc(-c2c(F)cc(S(=O)(=O)N3CC[C@H](F)C3)cc2F)nc2cc(C(=O)O)ccc12 [Example 1, 2-{2,6-difluoro-4-[(3S)-3-fluoropyrrolidine-1-sulfonyl]phenyl}-4-methylquinoline-7-carboxylic acid]
[2]
  Emax: 91.9%
  EC50: 64 nM

## Cc1c(F)c(-c2c(F)cc(S(=O)(=O)N3CCC(F)CC3)cc2F)nc2cc(C(=O)O)ccc12 [Example 18, 2-[2,6-difluoro-4-(4-fluoropiperidine-1-sulfonyl)phenyl]-3-fluoro-4-methylquinoline-7-carboxylic acid]
[2]
  Emax: 99.8%
  EC50: 3 nM
[3]; 3 mg/kg oral twice daily
  suppressing action on grip strength decrease: suppressing action on grip strength decrease
[3]; 10 mg/kg oral twice daily
  suppressing action on grip strength decrease: suppressing action on grip strength decrease

## Cc1cc(-c2ccc(S(=O)(=O)N3CC[C@H](F)C3)cc2F)nc2cc(C(=O)NS(=O)(=O)C3CC3)ccc12 [Example 9, N-(cyclopropanesulfonyl)-2-{2-fluoro-4-[(3S)-3-fluoropyrrolidine-1-sulfonyl]phenyl}-4-methylquinoline-7-carboxamide]
[2]
  Emax: 34.9%
[2]; at 1.1 μM, vs 10 ng/ml Agrin (100%)
  response, % at 1.1 μM: 34.9% at 1.1 μM

## Cc1cc(-c2c(F)cc(S(=O)(=O)N3CC[C@H](F)C3)cc2F)nc2cc(CCC(=O)O)ccc12 [Example 34]
[2]
  Emax: 94.1%
  EC50: 16 nM

## Cc1cc(-c2ccc(S(=O)(=O)N3C[C@@H](O)[C@H](F)C3)cc2F)nc2cc(C(=O)O)ccc12 [Example 49]
[2]
  Emax: 81.9%
  EC50: 1090 nM

## Cc1cc(-c2c(F)cc(S(=O)(=O)N3CCCC3)cc2F)nc2cc(C(=O)O)ccc12 [Example 21]
[2]
  Emax: 97.3%
  EC50: 147 nM

## Cc1cc(-c2ccc(S(=O)(=O)N3CCCCC3)cc2)nc2cc(OCCO)ccc12 [Example 63]
[2]
  Emax: 104%
  EC50: 165 nM

## Cc1cc(-c2ccc(S(=O)(=O)N3CCC[C@H](O)C3)cc2F)nc2cc(C(=O)O)ccc12 [Example 50]
[2]
  Emax: 70.5%
  EC50: 3520 nM

## Cc1cc(-c2ccc(S(=O)(=O)N3CCC(F)CC3)cc2F)nc2cc(C(=O)O)ccc12 [Example 5, 2-[2-fluoro-4-(4-fluoropiperidine-1-sulfonyl)phenyl]-4-methylquinoline-7-carboxylic acid]
[2]
  Emax: 86.8%
  EC50: 95 nM

## Cc1cc(-c2ccc(S(=O)(=O)N3C[C@@H](F)C[C@H]3CO)cc2F)nc2cc(C(=O)O)ccc12 [Example 28]
[2]
  Emax: 74.2%
  EC50: 4030 nM

## Cc1cc(-c2c(F)cc(S(=O)(=O)N3CCC(F)CC3)cc2F)nc2cc(C(=O)NCCCN)ccc12 [Example 58]
[2]
  Emax: 89.6%
  EC50: 33 nM

## Cc1cc(-c2ccc(S(=O)(=O)N3CC[C@H](F)C3)cc2F)nc2cc(OCCN)ccc12 [Example 13, 2-[(2-{2-fluoro-4-[(3S)-3-fluoropyrrolidine-1-sulfonyl]phenyl}-4-methylquinolin-7-yl)oxy]ethan-1-amine hydrochloride]
[2]
  Emax: 117%
  EC50: 3 nM

## Cc1cc(-c2c(F)cc(S(=O)(=O)N3CC[C@H](F)C3)cc2F)nc2nc(C3CCC(C(=O)O)CC3)ccc12 (some centres unmarked) [Example 37]
[2]
  Emax: 70.1%
  EC50: 3220 nM
